Laboratory results reported in ChEMBL document CHEMBL1156238, “Allosteric inhibitors of hepatitis C virus NS5B polymerase thumb domain site II: structure-based design and synthesis of new templates” (Bioorg Med Chem, 2010).
Active and inactive are the calls of the source. No cut-off for these calls is given here.

Key:
Hepatitis C virus [1] = test: Inhibition of HCV genotype 1b NS5B polymerase deltaC21 mutant; type: functional, Hepatitis C virus subtype 1b
[2] = Inhibition of HCV genotype 2b NS5B polymerase deltaC21 mutant; set-up: species or system Hepatitis C virus subtype 2b
Hepatitis C virus [3] = test: Antiviral activity against HCV infected in human HBI10A cells; type: functional, organism-based, Hepacivirus hominis
[4] = Cytotoxicity against human HBI10A cells; type: cell-based
Hepatitis C virus [5] = test: Antiviral activity against Hepatitis C virus H2B2; type: functional, organism-based, Hepacivirus hominis
[6] = Selectivity index, ratio of CC50 for human HBI10A cells to EC50 for Hepatitis C virus; type: toxicity, cell-based; conditions: read-out: Ratio CC50/EC50
Hepatitis C virus [7] = test: Inhibition of HCV genotype 1b NS5B polymerase deltaC21 M423K mutant; type: functional, Hepatitis C virus subtype 1b
Hepatitis C virus [8] = test: Inhibition of HCV genotype 1b NS5B polymerase deltaC21 M423K mutant at 2 uM; type: functional; conditions: Hepatitis C virus subtype 1b
[9] = Cytotoxicity against human HBI10A cells at 20 uM; type: cell-based
Hepatitis C virus [10] = test: Inhibition of HCV genotype 1b NS5B polymerase deltaC21 mutant at 50 uM; type: functional; conditions: Hepatitis C virus subtype 1b
Hepatitis C virus [11] = test: Inhibition of HCV genotype 1b NS5B polymerase deltaC21 M423K mutant at 50 uM; type: functional; conditions: Hepatitis C virus subtype 1b
Hepatitis C virus [12] = test: Antiviral activity against Hepatitis C virus at 20 uM; conditions: Hepacivirus hominis
[13] = Hepatitis C virus, H2B2, read-out: EC50

Row | SMILES | IC50 (Hepatitis C virus [1]; read-out: IC50) [µM] | IC50 [2] [µM] | EC50 (Hepatitis C virus [3]) [µM] | CC50 ([4]; HBI10A cells, read-out: CC50) [µM] | EC50 (Hepatitis C virus [5]; [13]) [µM] | selectivity ratio [6] | other results
1 | Cn1c(=O)n(-c2cccc(Cl)c2)c(=O)c2ccc(NC3CCN(Cc4ccccc4)CC3)cc21 | 0.075 | 1.3 | 11 | 9.9 | > 25 | 0.9 | 
2 | Cc1c(NCCO)ccc2c(=O)n(-c3cccc(Cl)c3)c3nncn3c12 | 0.38 | 5.3 | 14 |  |  |  | CC50 ([4]; hbi10a): Not Active; EC50 (Hepatitis C virus [5]): Not Active
3 | COc1cccc2c1C(=O)c1c(O)c3c(c(O)c1C2=O)C[C@@](O)(C(=O)CO)C[C@@H]3O[C@H]1C[C@H](N)[C@H](O)[C@H](C)O1 [DOXORUBICIN] |  |  |  | < 0.3 |  | < 1 | IC50 (Hepatitis C virus [1]): 2.6 µM; IC50 (Hepatitis C virus [7]): 12 µM
4 | O=C1c2cccc3c(NC4CCN(Cc5ccccc5)CC4)ccc(c23)C(=O)N1c1cccc(Br)c1 | < 0.014 | 0.043 | 2.2 | 5.2 | 1.7 | 2.4 | 
5 | O=C1c2cccc3c(NCCO)ccc(c23)C(=O)N1c1cccc(Br)c1 | 0.02 | 0.18 |  | 68 | 18 |  | inhibition (Hepatitis C virus [8]): inactive
6 | O=c1c2ccc(N[C@H]3CC[C@@H](C(=O)O)CC3)c3c2n(c(=O)n1-c1cccc(Cl)c1)CCC3 | 1.1 | 0.49 | 13 | > 100 | 17 | > 7.8 | 
7 | O=c1c2ccc(NC3CCN(Cc4ccccc4)CC3)cc2n2ccnc2n1-c1cccc(Cl)c1 | 0.84 | > 5 | 3.7 | 3.2 | 2.6 | 0.9 | 
8 | Cc1c(NC2CCN(Cc3ccccc3)CC2)ccc2c(=O)n(-c3cccc(Cl)c3)c3nncn3c12 | 6.6 | 0.4 | 3 | 9 | < 100 | 3 | 
9 | CC(C)CNc1ccc2c(=O)n(-c3cccc(Cl)c3)c(=O)n(C)c2c1 | 3 | 5 | 24 | > 100 | > 100 | > 4 | 
10 | O=C(NCCO)c1cccc2c(=O)n(-c3cccc(Cl)c3)c(=O)[nH]c12 | > 10 | > 10 | < 100 |  |  |  | CC50 ([4]; hbi10a): Not Active; EC50 (Hepatitis C virus [5]): Not Active
11 | O=c1c2ccc(NCCO)c3c2n(c(=O)n1-c1cccc(Cl)c1)CCC3 | 0.2 | 0.67 | 15 | 12 | 26 | 0.8 | 
12 | O=c1c2cccc3c2n(c(=O)n1-c1cccc(Cl)c1)CCN3CCCO | 5.2 | 7.7 | < 100 |  | > 100 |  | CC50 ([4]; hbi10a): Not Active
13 | O=C(NC1CCN(Cc2ccccc2)CC1)c1cccc2c(=O)n(-c3cccc(Cl)c3)c(=O)[nH]c12 | 0.076 | 0.73 | 4 | 7 | 6.6 | 1.8 | 
14 | CC[n+]1c(-c2ccccc2)c2cc(N)ccc2c2ccc(N)cc21 [HOMIDIUM BROMIDE] | 0.81 |  |  | 0.7 |  | 0.85 | IC50 (Hepatitis C virus [7]): 3.8 µM
15 | O=C(O)c1cc(Cl)cc(-n2c(=O)c3ccc(NC4CCN(Cc5ccccc5)CC4)c4c3n(c2=O)CCC4)c1 | 0.16 | 0.72 | 4.1 | 42 | 20 | 10 | 
16 | C=C[C@H]1C[N@@]2CC[C@H]1C[C@H]2[C@H](O)c1ccnc2ccc(OC)cc12 [QUININE] |  |  |  |  |  |  | inhibition (INH) [9]: Not Active
17 | O=c1c2ccc(NCCO)cc2n2ccnc2n1-c1cccc(Cl)c1 | > 10 | > 10 | > 100 |  |  |  | CC50 ([4]; hbi10a): Not Active; EC50 (Hepatitis C virus [5]): Not Active
18 | Cc1c(NCCO)ccc2c(=O)n(-c3cccc(Cl)c3)c(=O)n(C)c12 | 2.4 | 5.3 | 40 | > 100 | > 100 | > 2.5 | 
19 | CC1CCC(Nc2ccc3c(=O)n(-c4cccc(Cl)c4)c(=O)n(C)c3c2)CC1 (stereo unspecified) | 5.2 | 2.3 | 22 | 36 | 16 | 1.6 | 
20 | Cn1c(=O)n(-c2cccc(Cl)c2)c(=O)c2ccc(NCCO)cc21 | 2 | 8.2 | 40 | > 100 | > 100 |  | 
21 | O=C(O)c1cccc(CN2CCn3c(=O)n(-c4cccc(Cl)c4)c(=O)c4cccc2c43)c1 | 0.13 | 2 | 27 | > 100 | > 100 | > 3.7 | 
22 | O=c1c2ccc(NC3CCN(Cc4ccccc4)CC3)c3c2n(c(=O)n1-c1cccc(Cl)c1)CCC3 | 0.008 | 0.14 | 1.7 | 10 | 4.9 | 5.9 | 
23 | O=C1c2cccc3c(NCCO)ccc(c23)C(=O)N1c1cccc(Cl)c1 | 0.039 | 0.21 | 8.4 | 57 | 35 | 6.8 | 
24 | C=C[C@H]1CN2CC[C@H]1C[C@H]2[C@H](O)c1ccnc2ccc(OC)cc12 |  |  |  |  |  |  | inhibition (Hepatitis C virus [10]): inactive; inhibition (Hepatitis C virus [11]): inactive; inhibition (Hepatitis C virus [12]): inactive
25 | O=c1[nH]c2cc(NCCO)ccc2c(=O)n1-c1cccc(Cl)c1 | 5.5 | > 50 | > 100 | > 100 | > 100 |  | 
